Test results as given in patent US8008354B2, “Death receptor sensitizing compounds and methods of use therefor” (Burnham Institute for Medical Research, priority 2006, dated 2011).

Key:
PPC-1 cells [1] = experiment: Anoikis of PPC-1 cells in suspension versus adherent conditions (annexin V/PI, DAPI, colony formation); format: cell-based, human
Experimental: FIG. 12. Depletion of endogenous FLIP levels by siRNA sensitizes malignant cells to anoikis. (A) PPC-1 cells were seeded in adherent conditions overnight and then transfected with 25 nM anti-FLIP siRNA (siFLIP) or control luciferase siRNA (siCtrl). Thirty hours after transfection, cells were harvested, total protein isolated and analyzed by SDS-PAGE immunoblotting using anti-FLIP and anti-actin antibodies. (B) PPC-1 cells were transfected with increasing concentrations of siFLIP or siCtrl. After transfection, cells were treated with CH-11 Fas activating antibody (100 ng/ml). Thirty hours after incubation, cells were harvested and apoptosis measured by flow cytometry to detect cell surface annexin V expression and PI uptake. Data represents the mean±SEM percent of viable cells. (C) PPC-1 cells were transfected with increasing concentrations of siFLIP or siCtrl. After transfection, cells were subcultured under suspension conditions for 30 hours and then harvested. Apoptosis was measured by flow cytometry to detect cell surface annexin V expression and PI uptake. Data represents the mean±SEM of percent of viable cells. (D) Equal volumes of PPC-1 cells from panel C were replated under adherent conditions to permit clonogenic growth. One week after replating, cells were stained with methylene blue and the number of colonies counted. Data represents the mean±SEM percent of colonies compared to untreated controls.
FIG. 13. Small molecule down-regulation of FLIP sensitizes prostate cancer cells to anoikis. (A) PPC-1 cells were seeded overnight in adherent conditions and then treated with increasing concentrations of 5809354 for 16 hours. After incubation, cells were harvested. Total cellular RNA was extracted and mRNA levels of the long isoform of FLIP (FLIPL), the short isoform of FLIP (FLIPS), or rRNA levels of 18S were detected by real-time RT-PCR. Data were normalized using the ΔΔCT method and expressed as the mean±SEM percent of […] expression relative to untreated controls. (B) PPC-1 cells were cultured and treated as in panel A. Total cellular protein was isolated and analyzed by SDS-PAGE immunoblotting using anti-FLIP and anti-Actin antibodies. (C) PPC-1 cells were seeded overnight in adherent conditions and then exposed to increasing concentrations of 5809354 in the presence or absence of Fas-activating antibody (CH-11, 100 ng/mL). Thirty hours after incubation, cell viability was determined using the MTS assay. Data represents the mean±SEM of percent of viable cells. (D) PPC-1 cells were seeded overnight in adherent or suspension conditions and then treated with increasing concentrations of 5809354 for 30 hours. After incubation, apoptosis was measured by flow cytometry to detect cell surface annexin V expression and PI. Data represents the mean±SEM of percent of viable cells. (E) Cells were harvested, fixed, stained with DAPI, and nuclear morphology analyzed by fluorescence microscopy. Arrowheads refer to fragmented nuclei indicative of apoptosis. […] Thirty hours after incubation, cells were harvested and equal volumes plated in a colony formation assay. One week later, cells were stained with methylene blue and the number of colonies counted. Data represents the mean ±SEM percent of colonies relative to untreated controls.
FIG. 15. 5809354 sensitizes cells to anoikis through a caspase 8 dependent mechanism. (A) PPC-1 cells (5×10^4) were cultured under suspension conditions overnight and then treated with 5809354 in the presence or absence of the pan-caspase inhibitor z-VAD-fink (100 μM). Thirty hours after incubation, anoikis was determined by flow cytometry to detect cell surface annexin V expression and PI uptake. Data represents the mean±SEM percent of viable cells or colonies compared to untreated controls. (B) PPC-1 cells (5×10^4) were cultured in suspension conditions overnight and then treated with 5809354 (60 μM). […]

PPC-1 cells [2] = experiment: Nuclear fragmentation of suspension PPC-1 cells overexpressing FLIP, CrmA or BclXL; format: cell-based, human; details: 5809354 60 μM or staurosporine 0.5 μM, thirty hours
Experimental: FIG. 15. 5809354 sensitizes cells to anoikis through a caspase 8 dependent mechanism. (A) PPC-1 cells (5×10^4) were cultured under suspension conditions overnight and then treated with 5809354 in the presence or absence of the pan-caspase inhibitor z-VAD-fink (100 μM). Thirty hours after incubation, anoikis was determined by flow cytometry to detect cell surface annexin V expression and PI uptake. Data represents the mean±SEM percent of viable cells or colonies compared to untreated controls. (B) PPC-1 cells (5×10^4) were cultured in suspension conditions overnight and then treated with 5809354 (60 μM). At increasing times after treatment, caspase activation was detected with FITC-labeled peptides that bind preferentially and irreversibly to caspase 3/7, 8, or 9. Caspase activation was monitored by flow cytometry to quantify the percentage of fluorescently labeled cells. […] At increasing times after incubation, total cellular protein was isolated and analyzed by SDS-PAGE immunoblotting using anti-caspase 8 and anti-actin antibodies. * indicates cleaved caspase 8. […] Thirty hours after incubation, apoptosis was measured by cell surface annexin V expression and PI uptake. […] Ten hours after incubation, cell viability was measured using the MTS assay. […] EGFP expression and nuclear morphology were analyzed by fluorescence microscopy. […]

| Molecule | apoptosis in suspension versus adherent cells (PPC-1 cells [1]; thirty hours) | effect of overexpressed FLIP, CrmA or BclXL on anoikis (PPC-1 cells [2]) | sensitization to anoikis (PPC-1 cells [1]; suspension conditions, 30 hours) | effect of z-VAD-fmk on anoikis (PPC-1 cells [1]; suspension conditions, z-VAD-fmk 100 μM) | apoptosis under adherent conditions (PPC-1 cells [1]; up to five days after treatment) |
| --- | --- | --- | --- | --- | --- |
| CN[C@@H]1C[C@H]2O[C@@](C)([C@@H]1OC)n1c3ccccc3c3c4c(c5c6ccccc6n2c5c31)C(=O)NC4 [staurosporine, reference compound] | did not discriminate between suspension and adherent cells | overexpression of BclXL, but not CrmA, protected |  |  |  |
| 4-(4-chloro-2-methylphenoxy)-N-hydroxybutanamide [compound 5809354] |  | attenuated 5809354-mediated anoikis | sensitized cells to anoikis | z-VAD-fmk inhibited the ability of 5809354 to promote anoikis | did not induce apoptosis |
